These results are taken from ChEMBL document CHEMBL1139799, “Identification of novel chemical inhibitors for ubiquitin C-terminal hydrolase-L3 by virtual screening” (Bioorg Med Chem, 2007).

Calls of active or inactive are those of the source. No cut-off for these calls is given here.

The target in experiment [1] is T1, Ubiquitin carboxyl-terminal hydrolase isozyme L3 (Homo sapiens, UniProt P15374).
T1 sequence (P15374 whole entry): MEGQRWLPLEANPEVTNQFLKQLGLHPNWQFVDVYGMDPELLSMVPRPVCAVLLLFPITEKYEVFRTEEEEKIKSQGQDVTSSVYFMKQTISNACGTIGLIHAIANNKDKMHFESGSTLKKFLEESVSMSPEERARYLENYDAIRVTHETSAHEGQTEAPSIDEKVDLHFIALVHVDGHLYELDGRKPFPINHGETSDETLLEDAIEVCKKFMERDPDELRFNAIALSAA
The experiment can be described thus: Inhibition of human UCH-L3 hydrolysis activity.

Experiment [2] deals with T2, Ubiquitin carboxyl-terminal hydrolase isozyme L3 (Homo sapiens) (UniProt P15374).
T2 sequence (whole entry): T1 sequence (P15374 whole entry)
The experiment can be described thus: Inhibition of human UCH-L3 hydrolysis activity at 350 uM relative to control. Details: scale not given: the % may be the effect or the level left.

Experiment [3] addresses T2, Ubiquitin carboxyl-terminal hydrolase isozyme L3 (Homo sapiens). The experiment can be described thus: Inhibition of human UCH-L3 hydrolysis activity at 331 uM.
The target is the same in experiment [4]. The experiment can be described thus: Inhibition of human UCH-L3 hydrolysis activity at 386 uM.
Experiment [5] has the same target. The experiment can be described thus: Inhibition of human UCH-L3 hydrolysis activity at 387 uM.
For experiment [6] the target is unchanged. The experiment can be described thus: Inhibition of human UCH-L3 hydrolysis activity at 334 uM.
Experiment [7] has the same target. Nature of the experiment: Inhibition of human UCH-L3 hydrolysis activity at 380 uM relative to control. Details: scale not given: the % may be the effect or the level left.
For experiment [8] the target is unchanged. Nature of the experiment: Inhibition of human UCH-L3 hydrolysis activity at 375 uM relative to control. Details: scale not given: the % may be the effect or the level left.

As a reminder, the IC50 is the concentration at which inhibition is half-maximal. As to `Cc1ccc(C(=O)C2=C(O)C(=O)N(Cc3ccccc3)C2c2cccnc2)o1` (stereo not given), it took 103 µM to reach half-maximal inhibition in experiment [1] (IC50).
In the case of `Cc1ccc(C(=O)C2=C(O)C(=O)N(Cc3cccnc3)C2c2ccc(F)cc2)o1` (stereo not given), inhibition in experiment [1] was half-maximal at 123 µM (IC50). The compound also showed an Activity in experiment [2] of 76.8%.
For the compound `CCS(=O)(=O)Nc1cccc(C2=NN(C(C)=O)C(c3cccs3)C2)c1` (stereo not given), the outcome in experiment [3] was inactive.
Take `COc1cccc(N(CC(=O)NC2CCCC2)S(=O)(=O)c2ccccc2)c1`: the outcome in experiment [4] was inactive.
On to `Nc1nc(CSc2nnc(-c3ccco3)n2-c2ccccc2)cs1`, for which the result in experiment [5] was inactive.
For the compound `COc1ccc(N(CC(=O)NC2CC2)S(=O)(=O)c2ccc(C)cc2)cc1`, the result in experiment [6] was inactive.
In turn, `Cn1c(SCc2nc(-c3cccs3)no2)nnc1-c1c[nH]c2ccccc12` had an Activity in experiment [7] of 16.2%.
In experiment [1], `COc1ccc(C2C(C(=O)c3cccs3)=C(O)C(=O)N2c2nncs2)cc1` (stereo not given) returned a half-maximal inhibitory concentration (IC50) of 154 µM. The Activity in experiment [8] was 76.5%.
